Each structure is given as a SMILES string. pIC50: −log10 of the molar value.

Assay [1] relates to IL-1β production in PMA-differentiated THP-1 cells. In words: hTHP-1 assay containing 10% fetal bovine serum (IL-1β production, gramicidin-stimulated THP-1 cells). It counts as cell-based, human. As to the method: Activity key: <0.008 μM=“++++++”; ≥0.008 and <0.04 μM=“+++++”; ≥0.04 and <0.2 μM=“++++”; ≥0.2 and <1 μM=“+++”; ≥1 and <5 μM=“++”; ≥5 and <30 μM=“+”. ND=not determined.

The test system is the same in assay [2]. As to the kind of experiment: IL-1β production in PMA-differentiated THP-1 cells stimulated with gramicidin (hTHP-1 assay containing 2% fetal bovine serum). It counts as cell-based, human. Conditions: hTHP-1 assay containing 2% fetal bovine serum. In a few lines: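 THP-1 cells were differentiated with PMA 20 ng/ml for 16-18 h, then plated at 50,000 cells/well in RPMI with 2% FBS. They were preincubated 1 h with compound (100–0.0017 μM final, 0.37% DMSO), then stimulated with gramicidin 5 μM for 2 h. Supernatant IL-1β was measured by HTRF.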

The mark [3] stands for this setting: read-out: hTHP-1 IC50 in 10% FBS, average IC50.
[4] abbreviates: read-out: hTHP-1 IC50 in 2% FBS, average IC50.

What is called pIC50 is the IC50 on a negative log10 scale, so that one unit is a factor of ten. As to `CC(C)c1cc2c(c(C(C)C)c1CC(=O)N=S(N)(=O)c1nn(CCO)cc1F)OC(F)(F)O2` (racemic) [Example 405, (R) and (S)—N-(amino(4-fluoro-1-(2-hydroxyethyl)-1H-pyrazol-3-yl)(oxo)-λ^6-sulfaneylidene)-2-(2,2-difluoro-4,6-diisopropylbenzo[d][1,3]dioxol-5-yl)acetamide], the figures for the negative logarithm of the IC50 (pIC50) in assay [1] (setting [3]) and in assay [2] (setting [4]) were 6.70 to 7.40 and 6.00 to 6.70, respectively.

Regarding `CC(C)c1cccc(C(C)C)c1CC(=O)N=S(N)(=O)c1ccc(CCNC(=O)CCCc2ccccc2)cc1` (stereo not drawn) [Compound 409], the negative logarithm of the IC50 (pIC50) was 6.00 to 6.70 in assay [1] (Homo sapiens, THP-1, read-out: hTHP-1 IC50 in 10% FBS, average IC50) and 5.30 to 6.00 in assay [2] (Homo sapiens, THP-1, read-out: hTHP-1 IC50 in 2% FBS, average IC50).

Regarding `CC(C)c1c(CC(=O)N=S(N)(=O)c2sc(C(C)(C)O)cc2F)c2c(c3c1OC(F)(F)O3)CCC2` (racemic) [Example 408, (R) and (S)—N-(amino(3-fluoro-5-(2-hydroxypropan-2-yl)thiophen-2-yl)(oxo)-λ^6-sulfaneylidene)-2-(2,2-difluoro-4-isopropyl-7,8-dihydro-6H-indeno[4,5-d][1,3]dioxol-5-yl)acetamide], the negative logarithm of the IC50 (pIC50) in assay [1] (setting [3]) and in assay [2] (setting [4]) was 6.00 to 6.70 in each case.

For the compound `CC(C)c1cc2c(c(C(C)C)c1CC(=O)N=S(N)(=O)c1nn(CCO)cc1F)OC(F)(F)O2` (racemic) [Example 406, (R) and (S)—N-(amino(4-fluoro-1-(2-hydroxyethyl)-1H-pyrazol-3-yl)(oxo)-λ^6-sulfaneylidene)-2-(2,2-difluoro-4,6-diisopropylbenzo[d][1,3]dioxol-5-yl)acetamide], the negative logarithm of the IC50 (pIC50) is 5.30 to 6.00 in assay [1] (setting [3]) and 4.52 to 5.30 in assay [2] (setting [4]).

With `CC(C)c1c2c(c3c(c1CC(=O)N=S(N)(=O)c1sc(C(C)(C)O)cc1F)CCC3)COC2` (single isomer, unassigned) [Example 412, (S) or (R)-N-(amino(3-fluoro-5-(2-hydroxypropan-2-yl)thiophen-2-yl)(oxo)-λ^6-sulfaneylidene)-2-(4-isopropyl-3,6,7,8-tetrahydro-1H-indeno[4,5-c]furan-5-yl)acetamide], the negative-log IC50 (pIC50) in assay [1] (Homo sapiens, THP-1, read-out: hTHP-1 IC50 in 10% FBS, average IC50, given as numeric bound) was less than 4.52; in assay [2] (Homo sapiens, THP-1, read-out: hTHP-1 IC50 in 2% FBS, average IC50, given as numeric bound), less than 4.52.

Take `CC(C)c1c(CC(=O)N=S(N)(=O)c2sc(C(C)(C)O)cc2F)c2c(c3c1OC(F)(F)O3)CCC2` (racemic) [Example 407, (R) and (S)—N-(amino(3-fluoro-5-(2-hydroxypropan-2-yl)thiophen-2-yl)(oxo)-λ^6-sulfaneylidene)-2-(2,2-difluoro-4-isopropyl-7,8-dihydro-6H-indeno[4,5-d][1,3]dioxol-5-yl)acetamide]: the pIC50 in assay [1] (setting [3]) and in assay [2] (setting [4]) was 4.52 to 5.30 throughout.

Values taken from patent US20230059136A1, “THE COMPOUNDS AND COMPOSITIONS FOR TREATING CONDITIONS ASSOCIATED WITH NLRP ACTIVITY” (Novartis AG, priority 2018, published 2023).
